In test [1] the test system is primary fibroblasts from Niemann-Pick Disease type A patient. Nature of the test: Lysosomal cross-sectional area in NPDA patient fibroblasts. The format is cell-based, Human. The conditions noted are these: pulse-chase, added at T=0, measured at 24 h, 48 h, 72 h and 1 week; patient id 83/24; effect reversible. As for the experimental part:
FIG. 5: Pulse-Chase experiment. rhHSP70 (recombinant human HSP70) was added to primary fibroblasts from Niemann-Pick Disease type A patient (patient id: 83/24) at T=0, measurements of lysosomal cross-sectional area were performed at 24 h, 48 h, 72 h and 1 week after administration. […] Conclusion: The effect of rhHSP70 is reversible and lasts ca. 1 week.
FIG. 6: Arimoclomol dose-titration experiment. Various concentrations of Arimoclomol (‘Ari’) added for 48 h to primary fibroblasts from Niemann-Pick Disease type A patient (patient id: 83/24). Read-out: lysosomal cross-sectional area.

The test system of test [2] is U-2-OS osteosarcoma cells. In words: Uptake and localization of fluorochrome-labeled recombinant protein. The format is cell-based, Human. The conditions noted are these: 300 nM rHsp70-AF488, 24 h. As for the experimental part:
FIG. 2: Lysosomal Hsp70 stabilizes lysosomal membranes. (a) Representative confocal images of U-2-OS cells incubated with 300 nM rHsp70-AF488 (green) for 24 h, fixed and stained for lysosomal integral membrane protein-1 (LIMP-1; red). For co-localization with other organelle markers see FIG. 3. (b) U-2-OS cells were incubated with 300 nM rHsp70-AF488 for 24 h before quantification of rHsp70-AF488 in membranes (memb.) and supernatant (sup.) obtained by repeated freeze/thaw cycles and centrifugation the light membrane fraction (LMF). […] (c) Representative still images of U-2-OS cells exposed to photo-oxidation (acridine orange and blue light). The loss of lysosomal integrity is visualized by the loss of red and increase in green staining. (d and e) U-2-OS cells were incubated with indicated recombinant proteins (300 nM) for 24 h, and analyzed for lysosomal integrity upon photo-oxidation. When indicated, cells were treated with indicated siRNAs for 48 h prior to the addition of recombinant proteins (e). The values represent means±SD (standard deviation) for three (d) or five (e) independent experiments. Representative immunoblots of indicated proteins from U-2-OS cells left untreated or treated with control or Hsp70 siRNAs are shown on the right. Scale bars: 20 μm (a and c).
FIG. 3: Colocalization of endocytosed rHsp70-AF488 with lysosomes. […]

The subject of the next test is NPDA cells. Nature of the test: Volume of the lysosomal compartment in NPDA cells. The format is cell-based, Human. An excerpt:
BMP binds ASM with high affinity and stimulates its ability to hydrolyze sphingomyelin to ceramide and phosphorylcholine. […] In order to test whether ASM is responsible for the lysosome stabilizing effect we treated the cells with desipramine, a well characterized pharmacological ASM inhibitor. […] It should be noted that akin to rHsp70, also rASM localized to the lysosomes.
Primary antibodies used included mouse monoclonal antibodies against Hsp70 (2H9; kindly provided by Boris Margulis, Russian Academy of Sciences, St. Petersburg, Russia), glyceraldehyde-3-phosphate dehydrogenase (GAPDH; Biogenesis), BMP (6C4), lysosomal integral membrane protein-1 (H5C6; developed by J. Thomas August and James E. K. Hildreth and obtained from the Developmental Studies Hybridoma Bank developed under the auspices of the NICHD and maintained by The University of Iowa, Department of Biological Sciences, Iowa City, USA). Proteins separated by 10% SDS-PAGE and transferred to a nitrocellulose membrane were detected by using indicated primary antibodies, appropriate peroxidase-conjugated secondary antibodies from Dako, ECL Western blotting reagents (Amersham), and Luminescent Image Reader (LAS-1000Plus, Fujifilm). For immunocytochemistry Alexa […] or Alexa Fluor®-488-conjugated secondary antibodies were used. […] Fluorescence images were taken using a Zeiss Axiovert 100M laser scanning microscope. […]

Test [3] deals with NPC−/− mice. In words: NPC1 in vivo pilot study: tissue cholesterol (Amplex Red Cholesterol Assay). As for the experimental part: (§1) Eight treated (rHSP70) NPC^−/− versus eight control (PBS only) NPC^−/− controls. Mice were treated IP three times per week with either 10 mg/kg of rHSP70 or vehicle alone (PBS) from 3 weeks of age. Three control and three treated mice were sacrificed at 7 or 9 weeks old (i.e. after 4 or 6 weeks of treatment, respectively). Organs were perfused (PBS), weighed and frozen for biochemical and immunohistochemical analysis.
(§2) Organs were homogenised without any added buffer and frozen as 10 ul aliquots. Fresh aliquots were reconstituted to 100 ul with PBS prior to biochemical analysis. Protein determination for each aliquot was performed by BCA protein assay. Cholesterol assays were performed using the Amplex Red Cholesterol Assay from Invitrogen^i. Sphingosine was isolated by sphingoid base extraction and analysed by HPLC^i. GSLs were extracted and analysed by fluorescent HPLC^i. All results were standardised for protein content.

In test [4] the test system is NPC−/− mice. Nature of the test: NPC1 in vivo pilot study: brain sphingosine (HPLC). As for the experimental part:
as §1, §2

As to “rHsp70: recombinant (human) heat shock protein 70; in some tests labelled with Alexa Fluor 488”, in test [1], the “duration of the effect on lysosomal cross-sectional area” value is listed as “ca. 1 week”. The “uptake, co-localization and membrane binding” value in test [2] was “effective uptake of rHsp70, its specific co-localization with late endosomal and lysosomal markers and binding to lysosomal membranes”. Further, in the test with NPDA cells, the “volume of the enlarged lysosomal compartment in NPDA cells” value is “normalize the volume”. Also, the “cholesterol in peripheral tissue” value in the test with NPC−/− mice [3] (7 week time point, compared to control) is reported as “significant decreases”. For the same substance, the brain cholesterol result in the test on NPC−/− mice [3] (7 week time point, done in triplicate) is recorded as “decrease, although the decrease only occurred in one repeat of the experiment”. Besides, in the test on NPC−/− mice [3] (9 week time point), the cholesterol result is reported as “no difference”. Moreover, the sphingosine in brain result with NPC−/− mice [4] (7 week) is reported as “no significant difference”; in the test on NPC−/− mice [4] (9 week) it was “slight, yet significant (p<0.005, **) increased levels of sphingosine”.

The values are drawn from patent US10532085B2, “Methods for increasing intracellular activity of Hsp70” (Orphazyme A/S, priority 2010, dated 2020).
